US8030354B2, “Substituted biphenyl GPR40 modulators” (Amgen Inc., priority 2007, dated 2011)

Biological target: GPR40 (Homo sapiens, UniProt O14842)
Assay: Cell-based aequorin assay (CHO cells stably expressing GPR40 and aequorin)
Parameters: expressed in transfected cells; host or cells: CHO cells stably transfected with GPR40 and aequorin
Details: activation of human GPR40, CHO cells, 0.01% HSA
Outline: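 CHO cells stably co-expressing GPR40 and aequorin, loaded with coelenterazine (1 ug/mL, 2 h, room temperature) in H/HBSS with 20 mM Hepes and 0.01% fatty acid-free HSA. Serially diluted compounds added; luminescence recorded over 20 s. EC50 from dose-response of maximum relative light units.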

GPR40, sequence (O14842 whole entry): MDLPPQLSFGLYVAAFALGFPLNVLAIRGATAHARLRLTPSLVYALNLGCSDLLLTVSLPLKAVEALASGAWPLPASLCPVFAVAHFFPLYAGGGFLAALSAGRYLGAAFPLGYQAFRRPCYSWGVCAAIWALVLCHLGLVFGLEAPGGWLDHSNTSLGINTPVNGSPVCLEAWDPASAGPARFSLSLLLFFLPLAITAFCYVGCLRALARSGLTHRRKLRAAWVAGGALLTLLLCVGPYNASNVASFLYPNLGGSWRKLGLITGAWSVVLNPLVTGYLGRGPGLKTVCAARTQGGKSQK

SMILES | EC50
CCCCOc1cc(COc2cccc(C(CC)CC(=O)O)c2)ccc1-c1cccc(OC)c1 (single isomer, unassigned) [Example 65.2, (3R)-3-(3-(((2-(Butyloxy)-3′-(methyloxy)-1,1′-biphenyl-4-yl)methyl)oxy)phenyl)pentanoic acid or (3S)-3-(3-(((2-(butyloxy)-3′-(methyloxy)-1,1′-biphenyl-4-yl)methyl)oxy)phenyl)pentanoic acid] | 100 to 1000 nM
CCCCOc1cc(COc2cccc(C(CCC)CC(=O)O)c2)ccc1-c1cccc(OC)c1 (single isomer, unassigned) [Example 67.13, (3R)-3-(3-(((2-(Butyloxy)-3′-(methyloxy)-1,1′-biphenyl-4-yl)methyl)oxy)phenyl)hexanoic acid or (3S)-3-(3-(((2-(butyloxy)-3′-(methyloxy)-1,1′-biphenyl-4-yl)methyl)oxy)phenyl)hexanoic acid] | 100 to 1000 nM
CCCC(CC(=O)O)c1cccc(OCc2ccc(-c3cc(OC)ccc3F)c(/C=C/C3CC3)c2)c1 (single isomer, unassigned) [Example 67.9, (3R)-3-(3-(((2-((E)-2-Cyclopropylethenyl)-2′-fluoro-5′-(methyloxy)-1,1′-biphenyl-4-yl)methyl)oxy)phenyl)hexanoic acid or (3S)-3-(3-(((2-((E)-2-cyclopropylethenyl)-2′-fluoro-5′-(methyloxy)-1,1′-biphenyl-4-yl)methyl)oxy)phenyl)hexanoic acid] | 1000 to 10000 nM
CC1(C)CCC[C@@H]1c1cc(COc2cccc([C@@H](CC(=O)O)C3CC3)c2)ccc1-c1cccc(OC2CC2)c1 (single isomer, unassigned) [Example 66.48] | 100 to 1000 nM
CCCC(CC(=O)O)c1cccc(OCc2ccc(-c3cc(OC)ccc3F)c(/C=C/C(C)(C)C)c2)c1 (single isomer, unassigned) [Example 67.4, (3R)-3-(3-(((2-((1E)-3,3-Dimethyl-1-butenyl)-2′-fluoro-5′-(methyloxy)-1,1′-biphenyl-4-yl)methyl)oxy)phenyl)hexanoic acid or (3S)-3-(3-(((2-((1E)-3,3-dimethyl-1-butenyl)-2′-fluoro-5′-(methyloxy)-1,1′-biphenyl-4-yl)methyl)oxy)phenyl)hexanoic acid] | 100 to 1000 nM
CCCCOc1cc(COc2cccc(CCC(=O)O)c2)ccc1-c1cc(OC)ccc1F [Example 13, 3-(3-(((2-(Butyloxy)-2′-fluoro-5′-(methyloxy)-1,1′-biphenyl-4-yl)methyl)oxy)phenyl)propanoic acid] | 1000 to 10000 nM
COc1ccc(F)c(-c2ccc(COc3cccc([C@H](C)CC(=O)O)c3)cc2OC2CCCC2)c1 (single isomer, unassigned) [Example 32, (3R)-3-(3-(((2-(Cyclopentyloxy)-2′-fluoro-5′-(methyloxy)-1,1′-biphenyl-4-yl)methyl)oxy)phenyl)butanoic acid or (3S)-3-(3-(((2-(cyclopentyloxy)-2′-fluoro-5′-(methyloxy)-1,1′-biphenyl-4-yl)methyl)oxy)phenyl)butanoic acid] | 100 to 1000 nM
CC1(C)CCC=C1c1cc(COc2cccc([C@@H](CC(=O)O)C3CC3)c2)ccc1-c1cc(C(F)(F)F)ccc1F (single isomer, unassigned) [Example 66.53, (3S)-3-Cyclopropyl-3-(3-(((2-(5,5-dimethyl-1-cyclopenten-1-yl)-2′-fluoro-5′-(trifluoromethyl)-1,1′-biphenyl-4-yl)methyl)oxy)phenyl)propanoic acid or (3R)-3-cyclopropyl-3-(3-(((2-(5,5-dimethyl-1-cyclopenten-1-yl)-2′-fluoro-5′-(trifluoromethyl)-1,1′-biphenyl-4-yl)methyl)oxy)phenyl)propanoic acid] | 1000 to 10000 nM
CCCOc1cc(COc2cccc([C@H](C)CC(=O)O)c2)ccc1-c1cc(OC)ccc1F (single isomer, unassigned) [Example 27, (3R)-3-(3-(((2′-Fluoro-5′-(methyloxy)-2-(propyloxy)-1,1′-biphenyl-4-yl)methyl)oxy)phenyl)butanoic acid or (3S)-3-(3-(((2′-fluoro-5′-(methyloxy)-2-(propyloxy)-1,1′-biphenyl-4-yl)methyl)oxy)phenyl)butanoic acid] | 1000 to 10000 nM
COc1ccc(F)c(-c2ccc(COc3cccc([C@@H](CC(=O)O)C4CC4)c3)cc2C(C2CC2)N(C)C)c1 (single isomer, unassigned) [Example 66.38, (3S)-3-Cyclopropyl-3-(3-(((2-(cyclopropyl(dimethylamino)methyl)-2′-fluoro-5′-(methyloxy)-1,1′-biphenyl-4-yl)methyl)oxy)phenyl)propanoic acid or (3R)-3-cyclopropyl-3-(3-(((2-(cyclopropyl(dimethylamino)methyl)-2′-fluoro-5′-(methyloxy)-1,1′-biphenyl-4-yl)methyl)oxy)phenyl)propanoic acid] | 1000 to 10000 nM
COC[C@H](CC(=O)O)c1cccc(OCc2ccc(-c3cc(OC)ccc3F)c(C(C)(C)C)c2)c1 (single isomer, unassigned) [Example 102, (3R)-3-(3-(((2-(1,1-Dimethylethyl)-2′-fluoro-5′-(methyloxy)-1,1′-biphenyl-4-yl)methyl)oxy)phenyl)-4-(methyloxy)butanoic acid or (3S)-3-(3-(((2-(1,1-dimethylethyl)-2′-fluoro-5′-(methyloxy)-1,1′-biphenyl-4-yl)methyl)oxy)phenyl)-4-(methyloxy)butanoic acid] | 100 to 1000 nM
CCCCOc1cc(COc2cccc(C(CC(=O)O)CC3CC3)c2)ccc1-c1cc(OC)ccc1F (single isomer, unassigned) [Example 69.5, (3R)-3-(3-(((2-(Butyloxy)-2′-fluoro-5′-(methyloxy)-1,1′-biphenyl-4-yl)methyl)oxy)phenyl)-4-cyclopropylbutanoic acid or (3S)-3-(3-(((2-(butyloxy)-2′-fluoro-5′-(methyloxy)-1,1′-biphenyl-4-yl)methyl)oxy)phenyl)-4-cyclopropylbutanoic acid] | 100 to 1000 nM
COc1ccc(F)c(-c2ccc(COc3cccc(C(CC(=O)O)CC(C)C)c3)cc2C(C)(C)C)c1 (single isomer, unassigned) [Example 92, (3R)-3-(3-(((2-(1,1-Dimethylethyl)-2′-fluoro-5′-(methyloxy)-1,1′-biphenyl-4-yl)methyl)oxy)phenyl)-5-methylhexanoic acid or (3S)-3-(3-(((2-(1,1-dimethylethyl)-2′-fluoro-5′-(methyloxy)-1,1′-biphenyl-4-yl)methyl)oxy)phenyl)-5-methylhexanoic acid] | 1000 to 10000 nM
CC(C)(O)c1cccc(-c2ccc(COc3cccc([C@@H](CC(=O)O)C4CC4)c3)cc2[C@H]2CCCC2(C)C)c1 (single isomer, unassigned) [Example 66.76, (S)-3-(3-((S)-3-((S)-2,2-dimethylcyclopentyl)-4-(3-(2-hydroxypropan-2-yl)phenyl)benzyloxy)phenyl)-3-cyclopropylpropanoic acid or stereoisomer thereof] | 1000 to 10000 nM
COc1ccc(F)c(-c2ccc(COc3cccc([C@H](CC(=O)O)C4CC4)c3)cc2C2=CCCC2(C)C)c1 (single isomer, unassigned) [Example 97.1, (3R)-3-Cyclopropyl-3-(3-(((2-(5,5-dimethyl-1-cyclopenten-1-yl)-2′-fluoro-5′-(methyloxy)-1,1′-biphenyl-4-yl)methyl)oxy)phenyl)propanoic acid or (3S)-3-cyclopropyl-3-(3-(((2-(5,5-dimethyl-1-cyclopenten-1-yl)-2′-fluoro-5′-(methyloxy)-1,1′-biphenyl-4-yl)methyl)oxy)phenyl)propanoic acid] | 1000 to 10000 nM
CCCCOc1cc(COc2cccc(C(CC(=O)O)C3CC3)c2)ccc1-c1cccc(OC)c1 (single isomer, unassigned) [Example 66.1, (3S)-3-(3-(((2-(Butyloxy)-3′-(methyloxy)-1,1′-biphenyl-4-yl)methyl)oxy)phenyl)-3-cyclopropylpropanoic acid or (3R)-3-(3-(((2-(butyloxy)-3′-(methyloxy)-1,1′-biphenyl-4-yl)methyl)oxy)phenyl)-3-cyclopropylpropanoic acid] | 100 to 1000 nM
CCCCOc1cc(COc2cccc(C(C)CC(=O)O)c2)ccc1-c1cccc(F)c1 (single isomer, unassigned) [Example 64.26, (3R)-3-(3-(((2-(butyloxy)-3′-fluoro-1,1′-biphenyl-4-yl)methyl)oxy)phenyl)butanoic acid or (3S)-3-(3-(((2-(butyloxy)-3′-fluoro-1,1′-biphenyl-4-yl)methyl)oxy)phenyl)butanoic acid] | 1000 to 10000 nM
C=CC(C)(C)C(O)c1cc(COc2cccc(C(CC(=O)O)CC3CC3)c2)ccc1-c1cc(OC)ccc1F (single isomer, unassigned) [Example 69.40] | 1000 to 10000 nM

The next lines start with the values.

EC50 | SMILES
100 to 1000 nM | CCCC(CC(=O)O)c1cccc(OCc2ccc(-c3cccc(OC)c3)c(C3CCCC3(C)C)c2)c1 (single isomer, unassigned) [Example 80.5]
100 to 1000 nM | CCC(CC(=O)O)c1cccc(OCc2ccc(-c3cc(OC)ccc3F)c(C3CCCC3(C)C)c2)c1F (single isomer, unassigned) [Example 100.2]
100 to 1000 nM | CC1(C)CCC[C@@H]1c1cc(COc2cccc([C@@H](CC(=O)O)C3CC3)c2F)ccc1-c1ccccc1F (single isomer, unassigned) [Example 83.23]
1000 to 10000 nM | COc1ccc(F)c(-c2ccc(COc3cccc(C(CC(=O)O)C4CC4)c3F)cc2C(OC)C(C)(C)OC)c1 (single isomer, unassigned) [Example 83.33]
1000 to 10000 nM | CC1(C)CCC[C@H]1c1cc(COc2cccc([C@H](CC(=O)O)C3CC3)c2F)ccc1-c1cc(C(F)F)ccc1F (single isomer, unassigned) [Example 83.13]
